Test results taken from article PMC10380868, “Trapa bispinosa Roxb. Pericarp Extract Exerts 5α-Reductase Inhibitory Activity in Castrated Benign Prostatic Hyperplasia Model Mice” (International Journal of Molecular Sciences, 2023).

What was measured:
[1] = test system: 5αR; settings: cited from earlier work
[2] = molecular target: T1, 5α-reductase (5αR) (Rattus norvegicus, UniProt P24008); experiment: 5αR activity assay (S9 rat liver homogenate, residual testosterone by HPLC); assay type: biochemical; settings: cell-free system
T1 sequence (P24008 1-259): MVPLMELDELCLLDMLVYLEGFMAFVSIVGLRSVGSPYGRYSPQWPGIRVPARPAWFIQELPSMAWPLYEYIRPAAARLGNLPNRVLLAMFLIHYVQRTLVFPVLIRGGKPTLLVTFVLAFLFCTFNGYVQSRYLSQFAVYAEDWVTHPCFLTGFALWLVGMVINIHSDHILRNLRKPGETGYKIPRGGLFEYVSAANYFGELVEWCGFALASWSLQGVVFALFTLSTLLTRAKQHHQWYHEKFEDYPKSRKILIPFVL

[3] = test system: castrated BPH model mice; experiment: Castrated benign prostatic hyperplasia (BPH) mouse model; assay type: in vivo; settings: for testosterone-induced increase in seminal gland weight / testosterone-induced increase in ventral prostate size, length and width: 0.08% Fin, 1% TBE or 2% EA in drinking water, testosterone i.p. daily
[4] = qPCR, prostate and seminal glands

Compound	inhibition of 5αR [1]	testosterone-induced increase in seminal gland weight [3]	testosterone-induced increase in ventral prostate size, length and width [3]	other results
1,2,3,6- or 1,2,4,6-tetra-O-galloyl-D-glucose [TGG]	inhibit 5αR	–	–	–
O=c1oc2c(O)c(O)cc3c(=O)oc4c(O)c(O)cc1c4c23 [EA, ellagic acid]	–	negligible effects	negligible effects	inhibition of 5αR activity [2]: weakly inhibited
CC(C)(C)NC(=O)[C@H]1CC[C@H]2[C@@H]3CC[C@H]4NC(=O)C=C[C@]4(C)[C@H]3CC[C@]12C [Fin, finasteride]	–	tended to inhibit	tended to inhibit	canalization and lumen formation in prostate gland ([3]; Masson's trichrome histology, 0.08% Fin or 1% TBE): suppressed; prostate basal cell proliferation, BrdU+ cells ([3]; immunohistochemistry, 0.08% Fin or 1% TBE): inhibited cell proliferation; PSA (Klkb1) expression [3, 4]: suppressed; TMPRSS2 expression [3, 4]: suppressed
O=C(O)c1cc(O)c(O)c(O)c1 [GA, gallic acid]	–	–	–	5αR inhibitory effects [1]: does not exert 5αR inhibitory effects
O=C(O[C@@H]1O[C@@H]2COC(=O)c3cc(O)c(O)c(O)c3-c3c(cc(O)c(O)c3O)C(=O)O[C@H]2[C@H](OC(=O)c2cc(O)c(O)c(O)c2)[C@H]1OC(=O)c1cc(O)c(O)c(O)c1)c1cc(O)c(O)c(O)c1 [eugeniin]	inhibit 5αR	–	–	–
